According to the supplement of paper PMC10307832:

How the values were obtained:
Assay in all cases: relative viability (nuclei count vs DMSO), 5 days (fraction); higher = more cells survive
Ponatinib + Pictilisib = compound: Cc1ccc(C(=O)Nc2ccc(CN3CCN(C)CC3)c(C(F)(F)F)c2)cc1C#Cc1cnc2cccnn12 [Ponatinib] + CS(=O)(=O)N1CCN(Cc2cc3nc(-c4cccc5[nH]ncc45)nc(N4CCOCC4)c3s2)CC1 [Pictilisib] (partner 1 µM)
Outline: (§1)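 One day after seeding in 1536-well plates, lung cancer cell lines were dosed by pin tool. Dosing was either single-drug or a fixed anchor-drug dose plus five library-drug doses (not always all listed) in √10 steps. After 5 days, nuclei were stained in one fix-and-stain step and counted on 4× images, and relative viability is the nuclei count of treated wells over that of vehicle wells, given as the median of duplicate plates.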

Ponatinib + Crizotinib = compound: Cc1ccc(C(=O)Nc2ccc(CN3CCN(C)CC3)c(C(F)(F)F)c2)cc1C#Cc1cnc2cccnn12 [Ponatinib] + C[C@@H](Oc1cc(-c2cnn(C3CCNCC3)c2)cnc1N)c1c(Cl)ccc(F)c1Cl [Crizotinib] (partner 1 µM)
Outline: as §1

Pazopanib + Bortezomib = compound: Cc1ccc(Nc2nccc(N(C)c3ccc4c(C)n(C)nc4c3)n2)cc1S(N)(=O)=O [Pazopanib] + CC(C)C[C@H](NC(=O)[C@H](Cc1ccccc1)NC(=O)c1cnccn1)B(O)O [Bortezomib] (partner 0.002 µM)
Outline: as §1

Pazopanib + Phenformin = compound: Cc1ccc(Nc2nccc(N(C)c3ccc4c(C)n(C)nc4c3)n2)cc1S(N)(=O)=O [Pazopanib] + N=C(N)NC(=N)NCCc1ccccc1 [Phenformin] (partner 250 µM)
Outline: as §1

UMC-11
relative viability (Ponatinib + Pictilisib; first compound 0.002 µM): 0.809 | relative viability (Ponatinib + Pictilisib; first compound 0.006325 µM): 0.933 | relative viability (Ponatinib + Pictilisib; first compound 0.06325 µM): 0.766 | relative viability (Ponatinib + Pictilisib; first compound 0.2 µM): 0.831 | relative viability (Ponatinib + Crizotinib; first compound 0.002 µM): 0.678 | relative viability (Ponatinib + Crizotinib; first compound 0.006325 µM): 0.603 | relative viability (Ponatinib + Crizotinib; first compound 0.06325 µM): 0.786 | relative viability (Ponatinib + Crizotinib; first compound 0.2 µM): 0.612 | relative viability (Pazopanib + Bortezomib; first compound 0.01 µM): 0.668 | relative viability (Pazopanib + Bortezomib; first compound 0.03162 µM): 0.988 | relative viability (Pazopanib + Bortezomib; first compound 0.1 µM): 0.781 | relative viability (Pazopanib + Bortezomib; first compound 0.3162 µM): 0.662 | relative viability (Pazopanib + Bortezomib; first compound 1 µM): 0.976 | relative viability (Pazopanib + Phenformin; first compound 0.01 µM): 0.347 | relative viability (Pazopanib + Phenformin; first compound 0.03162 µM): 0.339 | relative viability (Pazopanib + Phenformin; first compound 0.1 µM): 0.361 | relative viability (Pazopanib + Phenformin; first compound 0.3162 µM): 0.32 | relative viability (Pazopanib + Phenformin; first compound 1 µM): 0.341
